Assay results published in ChEMBL document CHEMBL3885861, “Open TG-GATES”.

Species: Rattus norvegicus
Test: Open TG-GATES - Regimen: Daily Repeat
Format: toxicity, organism-based, Sprague-Dawley
Set-up: regimen Daily Repeat, gender Male, age 6 weeks
Conditions: in vivo, po, route gavage; for APTT / Bas / Eos / Fbg / Hb / Ht / Lym / MCH / MCHC / MCV / Mono / Neu / PT / Plat / RBC / Ret / WBC: tissue Blood; for KIDNEY_L / KIDNEY_R / KIDNEY_TOTAL: tissue Kidney; for LIVER: tissue Liver; for A/G / ALP / ALT / AST / BUN / CRE / Ca / Cl / DBIL / GLC / IP / K / LDH / Na / PL / RALB / TBIL / TC / TG / TP / gamma-GTP: tissue Plasma
[1] = 300 mg/kg, 72 h, dose level Middle, time 3 day
[2] = 300 mg/kg, […], dose level Middle, time 7 day
[3] = 300 mg/kg, […], dose level Middle, time 14 day
[4] = 300 mg/kg, […], dose level Middle, time 28 day
[5] = 1000 mg/kg, 72 h, dose level High, time 3 day
[6] = 1000 mg/kg, […], dose level High, time 7 day
[7] = 1000 mg/kg, […], dose level High, time 14 day
[8] = 1000 mg/kg, […], dose level High, time 28 day

## CC[C@@H](CO)NCCN[C@@H](CC)CO [ETHAMBUTOL]
[1]
  TERMINAL_BW: 239.4 g
  APTT: 21.6 s
  Bas: 0%
  Eos: 1%
  Fbg: 330.2 mg/dL
  Hb: 13.7 g/dL
  Ht: 40%
  Lym: 75%
  MCH: 21.8 pg
  MCHC: 34.3%
  MCV: 63.4 fL
  Mono: 3%
  Neu: 19.4%
  PT: 15.9 s
  Plat: 113.3 x10_4/uL
  RBC: 630 x10_4/ul
  Ret: 6.3%
  WBC: 92.4 x10_2/uL
  KIDNEY_L: 1 g
  KIDNEY_R: 1.1 g
  KIDNEY_TOTAL: 2.1 g
  LIVER: 12.5 g
  A/G: 1.3
  ALP: 1720.4 IU/L
  ALT: 43 IU/L
  AST: 71 IU/L
  BUN: 17.6 mg/dL
  CRE: 0.2 mg/dL
  Ca: 10.7 mg/dL
  Cl: 108 meq/L
  DBIL: 0 mg/dL
  GLC: 209.6 mg/dL
  IP: 7.6 mg/dL
  K: 3.9 meq/L
  LDH: 164.2 IU/L
  Na: 140.8 meq/L
  PL: 163.4 mg/dL
  RALB: 3.2 g/dL
  TBIL: 0.01 mg/dL
  TC: 90.2 mg/dL
  TG: 87.6 mg/dL
  TP: 5.7 g/dL
  gamma-GTP: 1.4 IU/L
[2]
  TERMINAL_BW: 262.8 g
  APTT: 20.8 s
  Bas: 0%
  Eos: 0.8%
  Fbg: 303.8 mg/dL
  Hb: 14.2 g/dL
  Ht: 41.4%
  Lym: 82.2%
  MCH: 20.7 pg
  MCHC: 34.3%
  MCV: 60.2 fL
  Mono: 2.4%
  Neu: 13%
  PT: 16.4 s
  Plat: 113.9 x10_4/uL
  RBC: 688.8 x10_4/ul
  Ret: 4.2%
  WBC: 98.6 x10_2/uL
  KIDNEY_L: 1.1 g
  KIDNEY_R: 1.1 g
  KIDNEY_TOTAL: 2.2 g
  LIVER: 12.5 g
  A/G: 1.1
  ALP: 1774.8 IU/L
  ALT: 60.2 IU/L
  AST: 92.2 IU/L
  BUN: 20.4 mg/dL
  CRE: 0.2 mg/dL
  Ca: 10.2 mg/dL
  Cl: 107.4 meq/L
  DBIL: 0.002 mg/dL
  GLC: 172.2 mg/dL
  IP: 7.9 mg/dL
  K: 4 meq/L
  LDH: 196 IU/L
  Na: 142.2 meq/L
  PL: 141.4 mg/dL
  RALB: 2.8 g/dL
  TBIL: 0.026 mg/dL
  TC: 73 mg/dL
  TG: 43.2 mg/dL
  TP: 5.3 g/dL
  gamma-GTP: 1.8 IU/L
[3]
  TERMINAL_BW: 299.9 g
  APTT: 20.4 s
  Bas: 0%
  Eos: 1%
  Fbg: 274.2 mg/dL
  Hb: 14.2 g/dL
  Ht: 42.3%
  Lym: 82.2%
  MCH: 19.2 pg
  MCHC: 33.7%
  MCV: 57 fL
  Mono: 2.4%
  Neu: 13.2%
  PT: 16.8 s
  Plat: 86.9 x10_4/uL
  RBC: 742.8 x10_4/ul
  Ret: 2.3%
  WBC: 118.5 x10_2/uL
  KIDNEY_L: 1.3 g
  KIDNEY_R: 1.3 g
  KIDNEY_TOTAL: 2.6 g
  LIVER: 15.8 g
  A/G: 1.1
  ALP: 2103.2 IU/L
  ALT: 68 IU/L
  AST: 115.2 IU/L
  BUN: 24.4 mg/dL
  CRE: 0.2 mg/dL
  Ca: 9.8 mg/dL
  Cl: 106.4 meq/L
  DBIL: 0.02 mg/dL
  GLC: 197 mg/dL
  IP: 7.2 mg/dL
  K: 4.6 meq/L
  LDH: 520.6 IU/L
  Na: 139.8 meq/L
  PL: 139.8 mg/dL
  RALB: 2.6 g/dL
  TBIL: 0.042 mg/dL
  TC: 79.4 mg/dL
  TG: 26.4 mg/dL
  TP: 4.9 g/dL
  gamma-GTP: 1.8 IU/L
[4]
  TERMINAL_BW: 296 g
  APTT: 21.4 s
  Bas: 0%
  Eos: 1.2%
  Fbg: 257.5 mg/dL
  Hb: 14.6 g/dL
  Ht: 42.3%
  Lym: 77.2%
  MCH: 17.9 pg
  MCHC: 34.5%
  MCV: 51.8 fL
  Mono: 2.8%
  Neu: 17.2%
  PT: 17.8 s
  Plat: 82.7 x10_4/uL
  RBC: 817.8 x10_4/ul
  Ret: 2%
  WBC: 127.3 x10_2/uL
  KIDNEY_L: 1.2 g
  KIDNEY_R: 1.3 g
  KIDNEY_TOTAL: 2.5 g
  LIVER: 14.5 g
  A/G: 1
  ALP: 1083.5 IU/L
  ALT: 66.5 IU/L
  AST: 136 IU/L
  BUN: 19.2 mg/dL
  CRE: 0.2 mg/dL
  Ca: 9.4 mg/dL
  Cl: 109.8 meq/L
  DBIL: 0.0275 mg/dL
  GLC: 209 mg/dL
  IP: 6.8 mg/dL
  K: 4.2 meq/L
  LDH: 602.8 IU/L
  Na: 140.5 meq/L
  PL: 117.5 mg/dL
  RALB: 2.6 g/dL
  TBIL: 0.055 mg/dL
  TC: 70.5 mg/dL
  TG: 24.5 mg/dL
  TP: 5.3 g/dL
  gamma-GTP: 1.5 IU/L
[5]
  TERMINAL_BW: 233.6 g
  APTT: 19.9 s
  Bas: 0%
  Eos: 0.8%
  Fbg: 303.8 mg/dL
  Hb: 13.5 g/dL
  Ht: 38.6%
  Lym: 77.8%
  MCH: 21.4 pg
  MCHC: 35%
  MCV: 61 fL
  Mono: 3.2%
  Neu: 16.6%
  PT: 16.3 s
  Plat: 122.5 x10_4/uL
  RBC: 633.2 x10_4/ul
  Ret: 4.8%
  WBC: 84.1 x10_2/uL
  KIDNEY_L: 1 g
  KIDNEY_R: 1.1 g
  KIDNEY_TOTAL: 2.1 g
  LIVER: 12.7 g
  A/G: 1.2
  ALP: 1656 IU/L
  ALT: 49 IU/L
  AST: 88.2 IU/L
  BUN: 21 mg/dL
  CRE: 0.2 mg/dL
  Ca: 10.6 mg/dL
  Cl: 108 meq/L
  DBIL: 0.002 mg/dL
  GLC: 177.8 mg/dL
  IP: 8.1 mg/dL
  K: 4 meq/L
  LDH: 160.8 IU/L
  Na: 140 meq/L
  PL: 163.8 mg/dL
  RALB: 3 g/dL
  TBIL: 0.026 mg/dL
  TC: 99.6 mg/dL
  TG: 41.2 mg/dL
  TP: 5.5 g/dL
  gamma-GTP: 1.6 IU/L
[6]
  TERMINAL_BW: 220.6 g
  APTT: 19.7 s
  Bas: 0%
  Eos: 0.8%
  Fbg: 167.4 mg/dL
  Hb: 16.1 g/dL
  Ht: 46.3%
  Lym: 73.8%
  MCH: 20.8 pg
  MCHC: 34.7%
  MCV: 59.8 fL
  Mono: 3.4%
  Neu: 19.4%
  PT: 19.6 s
  Plat: 116.6 x10_4/uL
  RBC: 774.8 x10_4/ul
  Ret: 2%
  WBC: 71 x10_2/uL
  KIDNEY_L: 1 g
  KIDNEY_R: 1.1 g
  KIDNEY_TOTAL: 2.1 g
  LIVER: 10.6 g
  A/G: 1.2
  ALP: 1664.8 IU/L
  ALT: 76.6 IU/L
  AST: 165.4 IU/L
  BUN: 22.2 mg/dL
  CRE: 0.2 mg/dL
  Ca: 9.3 mg/dL
  Cl: 107.4 meq/L
  DBIL: 0.3 mg/dL
  GLC: 145.2 mg/dL
  IP: 8.3 mg/dL
  K: 4.6 meq/L
  LDH: 334 IU/L
  Na: 138.8 meq/L
  PL: 108 mg/dL
  RALB: 2.4 g/dL
  TBIL: 0.3 mg/dL
  TC: 59.6 mg/dL
  TG: 15.6 mg/dL
  TP: 4.3 g/dL
  gamma-GTP: 1.4 IU/L
[7]
  TERMINAL_BW: 208.8 g
  APTT: 21.5 s
  Bas: 0%
  Eos: 1.2%
  Fbg: 228 mg/dL
  Hb: 15.5 g/dL
  Ht: 44.6%
  Lym: 83.2%
  MCH: 19.4 pg
  MCHC: 34.8%
  MCV: 55.6 fL
  Mono: 2.2%
  Neu: 12.4%
  PT: 18.1 s
  Plat: 126 x10_4/uL
  RBC: 800.4 x10_4/ul
  Ret: 0.5%
  WBC: 95.8 x10_2/uL
  KIDNEY_L: 1 g
  KIDNEY_R: 1 g
  KIDNEY_TOTAL: 2 g
  LIVER: 9.2 g
  A/G: 1.1
  ALP: 1208.4 IU/L
  ALT: 53 IU/L
  AST: 108.6 IU/L
  BUN: 21.8 mg/dL
  CRE: 0.2 mg/dL
  Ca: 9.4 mg/dL
  Cl: 108.6 meq/L
  DBIL: 0.068 mg/dL
  GLC: 155.2 mg/dL
  IP: 6.8 mg/dL
  K: 4.1 meq/L
  LDH: 178.8 IU/L
  Na: 139.4 meq/L
  PL: 112.6 mg/dL
  RALB: 2.4 g/dL
  TBIL: 0.08 mg/dL
  TC: 61.6 mg/dL
  TG: 19 mg/dL
  TP: 4.6 g/dL
  gamma-GTP: 3.6 IU/L
[8]
  TERMINAL_BW: 151.9 g
  APTT: 27.6 s
  Bas: 0%
  Eos: 0.3%
  Fbg: 252 mg/dL
  Hb: 17.2 g/dL
  Ht: 49.9%
  Lym: 41.3%
  MCH: 18 pg
  MCHC: 34.6%
  MCV: 52 fL
  Mono: 8.3%
  Neu: 46.7%
  PT: 19.9 s
  Plat: 105.7 x10_4/uL
  RBC: 960 x10_4/ul
  Ret: 0.7%
  WBC: 102.9 x10_2/uL
  KIDNEY_L: 0.9 g
  KIDNEY_R: 0.9 g
  KIDNEY_TOTAL: 1.8 g
  LIVER: 6.7 g
  A/G: 1.1
  ALP: 564 IU/L
  ALT: 45.3 IU/L
  AST: 342 IU/L
  BUN: 34 mg/dL
  CRE: 0.2 mg/dL
  Ca: 9.8 mg/dL
  Cl: 116.7 meq/L
  DBIL: 0.1 mg/dL
  GLC: 321.7 mg/dL
  IP: 10.9 mg/dL
  K: 4.3 meq/L
  LDH: 600.7 IU/L
  Na: 148 meq/L
  PL: 102 mg/dL
  RALB: 2.9 g/dL
  TBIL: 0.2 mg/dL
  TC: 60 mg/dL
  TG: 22.3 mg/dL
  TP: 5.5 g/dL
  gamma-GTP: 5.7 IU/L
